Each structure is given as a SMILES string.

For assay [1], the target named is human IL-17A / human IL-17RA (Homo sapiens (Human), UniProt Q16552). Description: Human IL-17A biochemical assay (HTRF, blocking of IL-17A binding to IL-17RA). To be noted: 0.4 nM IL-17A, 0.3 nM IL-17RA, max compound concentration 10 uM. Put shortly: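 0.4 nM hIL-17A + cpd (10 uM top, 2.7x, 10 pt), 3 h RT, HEPES pH 7.5 buffer w/ BSA, DTT, Tween 20; + 0.3 nM hIL-17RA 1 h RT; Tb/XL665 Abs 1 h; HTRF 620/665 ratio; 4PL IC50.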
Background: Time-resolved FRET reads energy transfer from a long-lived donor to a nearby acceptor.

For assay [2], the system named is IL-17-induced GROα secretion from HT-29 cells. The assay can be described thus: GROα release assay in human colorectal adenocarcinoma epithelial cell (HT-29, ELISA). To be noted: Homo sapiens, HT-29, 48 h, 10 ng/mL IL-17A, highest concentration 10 μM, read-out: Cellular assay HT29 cell/CXCL1 IC50. The format is cell-based. Summed up: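 HT-29 cells were exposed 48 h at 37°C to IL-17A (final 10 ng/mL) preincubated 15 min with compound (4-fold dilutions, top 10 μM). Secreted GROα was quantified by ELISA against a standard curve, and IC50 obtained by four-parameter fitting.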

Sequence of human IL-17A / human IL-17RA (Q16552 24-155): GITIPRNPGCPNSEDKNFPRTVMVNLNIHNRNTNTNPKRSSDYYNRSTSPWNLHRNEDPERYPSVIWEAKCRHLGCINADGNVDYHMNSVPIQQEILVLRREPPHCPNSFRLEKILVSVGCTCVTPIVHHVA

For `CNC(=O)C1(N2C[C@@H](C(C)C)NC2=O)Cc2ccc(NC(=O)[C@H](Cc3cc(-c4ccnc(C(C)(C)O)c4)ccc3Cl)NC(=O)c3ccnn3C)cc2C1` (stereo partly drawn) [Example 79, N-((2S)-3-(2-chloro-5-(2-(2-hydroxypropan-2-yl)pyridin-4-yl)phenyl)-1-((2-((R)-4-isopropyl-2-oxoimidazolidin-1-yl)-2-(methylcarbamoyl)-2,3-dihydro-1H-inden-5-yl)amino)-1-oxopropan-2-yl)-1-methyl-1H-pyrazole-5-carboxamide], the IC50 in assay [1] worked out at 79 nM; in assay [2], 1300 nM.
For the compound `CNC(=O)C1(N2C[C@@H](C(C)C)NC2=O)Cc2ccc(NC(=O)[C@@H](NC(=O)c3cccc(Oc4c(C)n[nH]c4C)c3)C3CCCCC3)cc2C1` (stereo partly drawn) [Example 149, 5-((S)-2-cyclohexyl-2-(3-((3,5-dimethyl-1H-pyrazol-4-yl)oxy)benzamido)acetamido)-2-((R)-4-isopropyl-2-oxoimidazolidin-1-yl)-N-methyl-2,3-dihydro-1H-indene-2-carboxamide], the IC50 is 92 nM in assay [1] and 44.3 nM in assay [2].
As for `CNC(=O)C1(N2C[C@@H](C(C)C)NC2=O)Cc2ccc(NC(=O)[C@@H](NC(=O)c3ccnn3C(C)C)C3CCCCC3)cc2C1` (stereo partly drawn) [Example 59, N-((1S)-1-cyclohexyl-2-((2-((R)-4-isopropyl-2-oxoimidazolidin-1-yl)-2-(methylcarbamoyl)-2,3-dihydro-1H-inden-5-yl)amino)-2-oxoethyl)-1-isopropyl-1H-pyrazole-5-carboxamide], the results for the IC50 in assay [1] and in assay [2] were 93 nM and 34.5 nM, respectively.
For `CCC1CCC(C(NC(=O)c2ccnn2C)C(=O)Nc2ccc3c(c2)CC(C(=O)NC)(N2C[C@@H](C(C)C)NC2=O)C3)CC1` (stereo partly drawn) [Example 101, N-(1-(4-ethylcyclohexyl)-2-((2-((R)-4-isopropyl-2-oxoimidazolidin-1-yl)-2-(methylcarbamoyl)-2,3-dihydro-1H-inden-5-yl)amino)-2-oxoethyl)-1-methyl-1H-pyrazole-5-carboxamide], in that order: 7.5 nM and 45.2 nM.
Take `CNC(=O)C1(N2C[C@@H](C(C)C)NC2=O)Cc2ccc(NC(=O)C(NC(=O)c3ccnn3C)C3CCC(C)CC3)cc2C1` (stereo partly drawn) [Example 89, N-(2-((2-((R)-4-isopropyl-2-oxoimidazolidin-1-yl)-2-(methylcarbamoyl)-2,3-dihydro-1H-inden-5-yl)amino)-1-(4-methylcyclohexyl)-2-oxoethyl)-1-methyl-1H-pyrazole-5-carboxamide]: the IC50 in assay [1] was 18 nM; in assay [2], 29.7 nM.
For `CC(C)[C@@H]1CN(C2(C(=O)NC34CC5CC(CC(C5)C3)C4)Cc3ccc(NC(=O)[C@@H](NC(=O)c4ccnn4C)C4CCCCC4)cc3C2)C(=O)N1` (stereo partly drawn) [Example 155, N-((1S)-2-((2-(((3R,5R)-adamantan-1-yl)carbamoyl)-2-((R)-4-isopropyl-2-oxoimidazolidin-1-yl)-2,3-dihydro-1H-inden-5-yl)amino)-1-cyclohexyl-2-oxoethyl)-1-methyl-1H-pyrazole-5-carboxamide], the IC50 amounted to 129 nM in assay [1] and 211 nM in assay [2].
Regarding `Cc1nonc1C(=O)N[C@H](C(=O)Nc1ccc2c(c1)OC(CN1C[C@@H](C(C)C)NC1=O)C2)C(C1CC1)C1CC1` (stereo partly drawn) [Example 271, N-((2S)-1,1-dicyclopropyl-3-((2-(((R)-4-isopropyl-2-oxoimidazolidin-1-yl)methyl)-2,3-dihydrobenzofuran-6-yl)amino)-3-oxopropan-2-yl)-4-methyl-1,2,5-oxadiazole-3-carboxamide], the IC50 in assay [1] was 268 nM; in assay [2] it was 1380 nM.
As to `CNC(=O)C1(N2CC(C)(C3CC3)CNC2=O)Cc2ccc(NC(=O)[C@@H](NC(=O)c3ccnn3C)C3CCCCC3)cc2C1` (stereo partly drawn) [Example 113, N-((1S)-1-cyclohexyl-2-((2-(5-cyclopropyl-5-methyl-2-oxotetrahydropyrimidin-1(2H)-yl)-2-(methylcarbamoyl)-2,3-dihydro-1H-inden-5-yl)amino)-2-oxoethyl)-1-methyl-1H-pyrazole-5-carboxamide], the IC50 in assay [1] amounted to 53 nM; in assay [2], 457 nM.
Take `Cc1nonc1C(=O)N[C@H](C(=O)Nc1ccc2c(c1)CC(C#N)(N1CC3(CC3)CNC1=O)C2)C1CCC(F)(F)CC1` (stereo partly drawn) [Example 210, N-((1S)-2-((2-cyano-2-(6-oxo-5,7-diazaspiro[2.5]octan-5-yl)-2,3-dihydro-1H-inden-5-yl)amino)-1-(4,4-difluorocyclohexyl)-2-oxoethyl)-4-methyl-1,2,5-oxadiazole-3-carboxamide]: the IC50 is 91.6 nM in assay [1] and 294 nM in assay [2].
Take `Cc1nonc1C(=O)N[C@H](C(=O)Nc1ccc2c(c1)CC(C(=O)Nc1c(F)cccc1Cl)(N1C[C@@H](C(C)C)NC1=O)C2)C(C1CC1)C1CC1` (stereo partly drawn) [Example 275, N-((2S)-1-((2-((2-chloro-6-fluorophenyl)carbamoyl)-2-((R)-4-isopropyl-2-oxoimidazolidin-1-yl)-2,3-dihydro-1H-inden-5-yl)amino)-3,3-dicyclopropyl-1-oxopropan-2-yl)-4-methyl-1,2,5-oxadiazole-3-carboxamide]: the results for the IC50 in assay [1] and in assay [2] were 61.3 nM and 133 nM, respectively.
For the compound `Cc1nonc1C(=O)N[C@H](C(=O)Nc1ccc2c(c1)CC(C(=O)Nc1cccc(F)c1)(N1CC3(CC3)CNC1=O)C2)C(C1CC1)C1CC1` (stereo partly drawn) [Example 216, N-((2S)-1,1-dicyclopropyl-3-((2-((3-fluorophenyl)carbamoyl)-2-(6-oxo-5,7-diazaspiro[2.5]octan-5-yl)-2,3-dihydro-1H-inden-5-yl)amino)-3-oxopropan-2-yl)-4-methyl-1,2,5-oxadiazole-3-carboxamide], the IC50 in assay [1] worked out at 23.3 nM; in assay [2] it was 58.9 nM.
For `CNC(=O)C1(N2C[C@@H](C(C)C)NC2=O)Cc2ccc(NC(=O)C(NC(=O)c3ccnn3C)C3CCC(C(C)(C)C)CC3)cc2C1` (stereo partly drawn) [Example 118, N-(1-(4-(tert-butyl)cyclohexyl)-2-((2-((R)-4-isopropyl-2-oxoimidazolidin-1-yl)-2-(methylcarbamoyl)-2,3-dihydro-1H-inden-5-yl)amino)-2-oxoethyl)-1-methyl-1H-pyrazole-5-carboxamide], in that order: 192 nM and 581 nM.
For `CNC(=O)C1(N2C[C@@H](C(C)C)NC2=O)Cc2ccc(NC(=O)[C@@H](NC(=O)c3cccnc3)C3CCCCC3)cc2C1` (stereo partly drawn) [Example 58, N-((1S)-1-cyclohexyl-2-((2-((R)-4-isopropyl-2-oxoimidazolidin-1-yl)-2-(methylcarbamoyl)-2,3-dihydro-1H-inden-5-yl)amino)-2-oxoethyl)nicotinamide], the IC50 in assay [1] was found to be 595 nM; in assay [2] it was 1440 nM.
Turning to `CNC(=O)C1(N2CC3(CC3)CNC2=O)Cc2ccc(NC(=O)[C@@H](NC(=O)c3c(F)cnn3C)C3CCCCC3)cc2C1` (stereo partly drawn) [Example 167, N-((1S)-1-cyclohexyl-2-((2-(methylcarbamoyl)-2-(6-oxo-5,7-diazaspiro[2.5]octan-5-yl)-2,3-dihydro-1H-inden-5-yl)amino)-2-oxoethyl)-4-fluoro-1-methyl-1H-pyrazole-5-carboxamide], the figures for the IC50 in assay [1] and in assay [2] were 127 nM and 220 nM, respectively.
For `CC(C)[C@@H]1CN(C2(C(=O)NC(CO)C3CCCC3)Cc3ccc(NC(=O)[C@@H](NC(=O)c4ccnn4C)C4CCCCC4)cc3C2)C(=O)N1` (stereo partly drawn) [Example 107, N-((1S)-1-cyclohexyl-2-((2-((1-cyclopentyl-2-hydroxyethyl)carbamoyl)-2-((R)-4-isopropyl-2-oxoimidazolidin-1-yl)-2,3-dihydro-1H-inden-5-yl)amino)-2-oxoethyl)-1-methyl-1H-pyrazole-5-carboxamide], the IC50 in assay [1] is 25 nM; in assay [2] it was 34.5 nM.
For `CCCC1CN(C2(C(=O)NC)Cc3ccc(NC(=O)[C@@H](NC(=O)c4ccnn4C)C4CCCCC4)cc3C2)C(=O)N1` (stereo partly drawn) [Example 26, N-((1S)-1-cyclohexyl-2-((2-(methylcarbamoyl)-2-(2-oxo-4-propylimidazolidin-1-yl)-2,3-dihydro-1H-inden-5-yl)amino)-2-oxoethyl)-1-methyl-1H-pyrazole-5-carboxamide], in that order: 360 nM and 1080 nM.
On the same counts, the results for `Cc1nonc1C(=O)N[C@H](C(=O)Nc1ccc2c(c1)CC(c1cn3ncccc3n1)(N1C[C@@H](C(C)C)NC1=O)C2)C(C1CC1)C1CC1` (stereo partly drawn) [Example 246, N-((2S)-1,1-dicyclopropyl-3-((2-(imidazo[1,2-b]pyridazin-2-yl)-2-((R)-4-isopropyl-2-oxoimidazolidin-1-yl)-2,3-dihydro-1H-inden-5-yl)amino)-3-oxopropan-2-yl)-4-methyl-1,2,5-oxadiazole-3-carboxamide] are 257 nM and 1220 nM.
As for `CNC(=O)C1(N2C[C@@H](C(C)C)NC2=O)Cc2ccc(NC(=O)[C@H](Cc3ccc(Cl)cc3)NC(=O)c3ccnn3C)cc2C1` (stereo partly drawn) [Example 204, N-((2S)-3-(4-chlorophenyl)-1-((2-((R)-4-isopropyl-2-oxoimidazolidin-1-yl)-2-(methylcarbamoyl)-2,3-dihydro-1H-inden-5-yl)amino)-1-oxopropan-2-yl)-1-methyl-1H-pyrazole-5-carboxamide], the IC50 in assay [1] was determined as 406 nM; in assay [2], 2240 nM.
In the case of `CNC(=O)C1(N2CC(C(C)c3ccccc3)NC2=O)Cc2ccc(NC(=O)[C@@H](NC(=O)c3ccnn3C)C3CCCCC3)cc2C1` (stereo partly drawn) [Example 48, N-((1S)-1-cyclohexyl-2-((2-(methylcarbamoyl)-2-(2-oxo-4-(1-phenylethyl)imidazolidin-1-yl)-2,3-dihydro-1H-inden-5-yl)amino)-2-oxoethyl)-1-methyl-1H-pyrazole-5-carboxamide], the results for the IC50 in assay [1] and in assay [2] were 161 nM and 1270 nM, respectively.

Values taken from patent US20250154138A1, “Small Molecule IL-17A Modulators” (BeiGene, Ltd., priority 2022, published 2025).
